According to PubChem BioAssay AID248 (DTP/NCI, 2004):
Values joined by “and” are separate entries in the source; they are usually repeats but may differ in a detail not shown here. Identical values can stand only once. Inconclusive results and toxic doses are left out.

System: L1210 leukemia ip in BDF1 mice, survival T/C
Assay: NCI In Vivo Anticancer Drug Screen. Data for tumor model L1210 Leukemia (intraperitoneal) in B6D2F1 (BDF1) mice
Conditions: endpoint: mean survival time, higher = longer survival
How it was run: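 Mice bearing the transplanted tumor received compound or vehicle. Survival of the treated group was divided by that of the vehicle-treated control group to give the ratio.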

[1] = dose: 100.0 mg/kg/injection, schedule: Q04DX003 (ip), vehicle: saline
[2] = dose: 200.0 mg/kg/injection, schedule: Q04DX003 (ip), vehicle: saline
[3] = dose: 100.0 mg/kg/injection, schedule: Q01DX001 (ip), vehicle: saline
[4] = dose: 200.0 mg/kg/injection, schedule: Q01DX001 (ip), vehicle: saline
[5] = dose: 100.0 mg/kg/injection, schedule: Q04DX002 (ip), vehicle: Klucel (hydroxypropylcellulose) (HPC)
[6] = dose: 12.5 mg/kg/injection, schedule: Q01DX009 (ip), vehicle: saline
[7] = dose: 25.0 mg/kg/injection, schedule: Q01DX009 (ip), vehicle: saline
[8] = dose: 50.0 mg/kg/injection, schedule: Q01DX009 (ip), vehicle: saline

With `O=C(O)c1ccccc1Oc1ccccc1C(=O)O` as the compound, how does the T/C [1] read?
The T/C was 102 % of control.

What about the T/C [2] of the same compound?
The T/C was 100 % of control.

What about the T/C (dose: 400.0 mg/kg/injection, schedule: Q04DX003 (ip), vehicle: saline) of the same compound?
Its T/C is 91 % of control.

`O=[N+]([O-])c1ccc2c(N=Nc3c(O)ccc4ccccc34)c(O)cc(S(=O)(=O)O)c2c1` was tested. Which T/C (dose: 50.0 mg/kg/injection, schedule: Q04DX003 (ip), vehicle: saline) did it give?
The T/C was 98 % of control.

And the T/C [3]?
Its T/C is 92 % of control.

And the T/C [4]?
The T/C was 92 % of control.

And the T/C [2]?
Its T/C is 92 % of control.

How did the T/C (dose: 25.0 mg/kg/injection, schedule: Q01DX009 (ip), vehicle: Klucel (hydroxypropylcellulose) (HPC)) turn out when `C=CCNC(=O)Nc1ncc([N+](=O)[O-])s1` was run?
Its T/C is 90 % of control.

And the T/C (dose: 25.0 mg/kg/injection, schedule: Q04DX002 (ip), vehicle: Klucel (hydroxypropylcellulose) (HPC))?
The T/C was 101 % of control.

And the T/C (dose: 50.0 mg/kg/injection, schedule: Q01DX009 (ip), vehicle: Klucel (hydroxypropylcellulose) (HPC))?
Its T/C is 111 % of control.

And the T/C (dose: 50.0 mg/kg/injection, schedule: Q04DX002 (ip), vehicle: Klucel (hydroxypropylcellulose) (HPC))?
The T/C was 93 % of control.

What about the T/C [5] of the same compound?
Its T/C is 93 % of control.

What does the source list for `C/C(=N/N(C)C)c1ccc([N+](=O)[O-])cc1`?
T/C (dose: 100.0 mg/kg/injection, schedule: Q01DX009 (ip), vehicle: saline): 113 % of control; T/C (dose: 200.0 mg/kg/injection, schedule: Q01DX009 (ip), vehicle: saline): 89 % of control

`CN1CCC(=C2c3ccccc3C=Cc3ccccc32)CC1` was tested. Which T/C (dose: 6.25 mg/kg/injection, schedule: Q01DX009 (ip), vehicle: saline) did it give?
The T/C was 95 % of control.

And the T/C [6]?
Its T/C is 90 % of control.

And the T/C [7]?
The T/C was 95 % of control.

And the T/C (dose: 25.0 mg/kg/injection, schedule: Q04DX003 (ip), vehicle: saline)?
The T/C was 96 % of control.

What about the T/C [8] of the same compound?
Its T/C is 98 % of control.

What about the T/C [1] of the same compound?
Its T/C is 102 % of control.

For `CC1(C)OC(=O)C(=Cc2cccc3ccc4ccccc4c23)C(=O)O1`, which T/C (dose: 100.0 mg/kg/injection, schedule: Q01DX001 (ip), vehicle: gum acacia) is on record?
Its T/C is 100 % of control.

What about the T/C (dose: 200.0 mg/kg/injection, schedule: Q01DX001 (ip), vehicle: gum acacia) of the same compound?
The T/C was 97 % of control.

What about the T/C (dose: 400.0 mg/kg/injection, schedule: Q01DX001 (ip), vehicle: gum acacia) of the same compound?
The T/C was 101 % of control.

`NC(=O)OCc1c(O)c2c(c(O)c1COC(N)=O)C(=O)C=CC2=O` was tested. Which T/C (dose: 6.25 mg/kg/injection, schedule: Q01DX009 (ip), vehicle: water) did it give?
Its T/C is 94 % of control.

And the T/C (dose: 12.5 mg/kg/injection, schedule: Q01DX009 (ip), vehicle: water)?
Its T/C is 92 % of control.

And the T/C (dose: 25.0 mg/kg/injection, schedule: Q01DX009 (ip), vehicle: water)?
Its T/C is 99 % of control.

What about the T/C (dose: 50.0 mg/kg/injection, schedule: Q01DX009 (ip), vehicle: water) of the same compound?
The T/C was 90 % of control.

What about the T/C (dose: 100.0 mg/kg/injection, schedule: Q01DX009 (ip), vehicle: water) of the same compound?
The T/C was 95 % of control.

Which results are given for `CCOC(=O)C(C)Oc1ccccc1[N+](=O)[O-]` (stereo not drawn)?
T/C (dose: 100.0 mg/kg/injection, schedule: Q01DX009 (ip), vehicle: Klucel (hydroxypropylcellulose) (HPC)): 93 % of control; T/C (dose: 200.0 mg/kg/injection, schedule: Q01DX009 (ip), vehicle: Klucel (hydroxypropylcellulose) (HPC)): 102 % of control; T/C (dose: 400.0 mg/kg/injection, schedule: Q01DX009 (ip), vehicle: Klucel (hydroxypropylcellulose) (HPC)): 102 % of control

What does the source list for `COc1cc(N(CCCl)CCCl)c(OC)cc1/C=N\NC(=O)CN(C)C`?
T/C (dose: 2.25 mg/kg/injection, schedule: Q01DX015 (ip), vehicle: saline): 105 % of control; T/C (dose: 4.5 mg/kg/injection, schedule: Q01DX015 (ip), vehicle: saline): 108 % of control; T/C (dose: 6.25 mg/kg/injection, schedule: Q01DX015 (ip), vehicle: saline): 119 % of control; T/C (dose: 9.0 mg/kg/injection, schedule: Q01DX015 (ip), vehicle: saline): 116 % of control; T/C (dose: 10.5 mg/kg/injection, schedule: Q01DX015 (ip), vehicle: saline): 114 % of control; T/C (dose: 12.5 mg/kg/injection, schedule: Q01DX015 (ip), vehicle: saline): 115 % of control; T/C (dose: 18.0 mg/kg/injection, schedule: Q01DX015 (ip), vehicle: saline): 111 % of control and 116 % of control; T/C (dose: 25.0 mg/kg/injection, schedule: Q01DX015 (ip), vehicle: saline): 96 % of control; T/C (dose: 30.0 mg/kg/injection, schedule: Q01DX015 (ip), vehicle: saline): 88 % of control; T/C (dose: 36.0 mg/kg/injection, schedule: Q01DX015 (ip), vehicle: saline): 94 % of control; T/C (dose: 44.7 mg/kg/injection, schedule: Q01DX001 (ip), vehicle: saline): 120 % of control; T/C (dose: 50.0 mg/kg/injection, schedule: Q01DX015 (ip), vehicle: saline): 90 % of control; T/C [3]: 162 % of control; T/C (dose: 150.0 mg/kg/injection, schedule: Q01DX001 (ip), vehicle: saline): 124 % of control

What does the source list for `COC(=O)c1ccc(N(C)C/C(CNc2nc(NC(C)=O)nc(SCc3ccccc3)c2[N+](=O)[O-])=N/O)cc1`?
T/C (dose: 100.0 mg/kg/injection, schedule: Q01DX001 (ip), vehicle: saline with Tween-80): 92 % of control; T/C (dose: 200.0 mg/kg/injection, schedule: Q01DX001 (ip), vehicle: saline with Tween-80): 86 % of control; T/C (dose: 400.0 mg/kg/injection, schedule: Q01DX001 (ip), vehicle: saline with Tween-80): 96 % of control

For `O=C(O)c1ccc(Br)s1`, which T/C [3] is on record?
The T/C was 97 % of control.

What about the T/C [4] of the same compound?
The T/C was 99 % of control.

What does the source list for `Cc1c(Cl)cccc1NC(=O)Oc1ccc(-c2ccccc2)cc1`?
T/C (dose: 50.0 mg/kg/injection, schedule: Q04DX003 (ip), vehicle: saline with Tween-80): 97 % of control; T/C (dose: 100.0 mg/kg/injection, schedule: Q01DX009 (ip), vehicle: saline with Tween-80): 95 % of control and 97 % of control; T/C (dose: 100.0 mg/kg/injection, schedule: Q04DX002 (ip), vehicle: saline with Tween-80): 93 % of control and 91 % of control; T/C (dose: 100.0 mg/kg/injection, schedule: Q04DX003 (ip), vehicle: saline with Tween-80): 101 % of control; T/C (dose: 200.0 mg/kg/injection, schedule: Q01DX009 (ip), vehicle: saline with Tween-80): 104 % of control and 89 % of control; T/C (dose: 200.0 mg/kg/injection, schedule: Q04DX002 (ip), vehicle: saline with Tween-80): 96 % of control; T/C (dose: 200.0 mg/kg/injection, schedule: Q04DX003 (ip), vehicle: saline with Tween-80): 100 % of control; T/C (dose: 400.0 mg/kg/injection, schedule: Q04DX002 (ip), vehicle: saline with Tween-80): 96 % of control and 103 % of control

For `CCCCCCCCCCCCCCCC[N+]1([O-])CCOCC1`, which T/C [6] is on record?
The T/C was 96 % of control.

And the T/C [7]?
Its T/C is 102 % of control.

And the T/C [8]?
Its T/C is 98 % of control.

Which T/C [5] does the source give for `O=C(O)CC(NC(=O)COc1ccc(F)cc1)C(=O)O` (stereo not drawn) here?
The T/C was 89 % of control.

What about the T/C (dose: 200.0 mg/kg/injection, schedule: Q04DX002 (ip), vehicle: Klucel (hydroxypropylcellulose) (HPC)) of the same compound?
The T/C was 89 % of control.

And the T/C (dose: 400.0 mg/kg/injection, schedule: Q04DX002 (ip), vehicle: Klucel (hydroxypropylcellulose) (HPC))?
The T/C was 96 % of control.

With `O=[N+]([O-])c1ccc2c(c1)/C(=N\O)c1cc(Cl)ccc1-2` as the compound, how does the T/C (dose: 100.0 mg/kg/injection, schedule: Q01DX001 (ip), vehicle: carboxymethylcellulose (CMC)) read?
Its T/C is 97 % of control.

What about the T/C (dose: 200.0 mg/kg/injection, schedule: Q01DX001 (ip), vehicle: carboxymethylcellulose (CMC)) of the same compound?
The T/C was 97 % of control.

And the T/C (dose: 400.0 mg/kg/injection, schedule: Q01DX001 (ip), vehicle: carboxymethylcellulose (CMC))?
The T/C was 94 % of control.

`Cc1cc(=O)oc2cc(OC(=O)Nc3ccc(F)c(Cl)c3)ccc12` was tested. Which T/C (dose: 3.12 mg/kg/injection, schedule: Q01DX009 (ip), vehicle: Klucel (hydroxypropylcellulose) (HPC)) did it give?
The T/C was 102 % of control.

And the T/C (dose: 6.25 mg/kg/injection, schedule: Q01DX009 (ip), vehicle: Klucel (hydroxypropylcellulose) (HPC))?
Its T/C is 96 % of control.

And the T/C (dose: 12.5 mg/kg/injection, schedule: Q01DX009 (ip), vehicle: Klucel (hydroxypropylcellulose) (HPC))?
Its T/C is 93 % of control and 92 % of control.

What about the T/C (dose: 100.0 mg/kg/injection, schedule: Q04DX003 (ip), vehicle: Klucel (hydroxypropylcellulose) (HPC)) of the same compound?
Its T/C is 97 % of control.

And the T/C (dose: 200.0 mg/kg/injection, schedule: Q04DX003 (ip), vehicle: Klucel (hydroxypropylcellulose) (HPC))?
Its T/C is 100 % of control.

What about the T/C (dose: 400.0 mg/kg/injection, schedule: Q04DX003 (ip), vehicle: Klucel (hydroxypropylcellulose) (HPC)) of the same compound?
The T/C was 101 % of control.

With `CC12CC3CC(C)(C1)CC(SCCN)(C3)C2` as the compound, how does the T/C (dose: 100.0 mg/kg/injection, schedule: Q04DX002 (ip), vehicle: saline) read?
Its T/C is 97 % of control.

And the T/C (dose: 200.0 mg/kg/injection, schedule: Q04DX002 (ip), vehicle: saline)?
The T/C was 97 % of control.

Which T/C (dose: 100.0 mg/kg/injection, schedule: Q01DX001 (ip), vehicle: other) does the source give for `CO/C=C(\C)C(=O)NC(=O)Nc1ccccc1` here?
Its T/C is 93 % of control.

And the T/C (dose: 200.0 mg/kg/injection, schedule: Q01DX001 (ip), vehicle: other)?
Its T/C is 98 % of control.

What about the T/C (dose: 400.0 mg/kg/injection, schedule: Q01DX001 (ip), vehicle: other) of the same compound?
Its T/C is 96 % of control.
